Legend:
Mus musculus = test: Cardioprotective activity in transgenic B6 mouse expressing cynomolgus monkey CETP assessed as increase in HDL-cholesterol level at 10 mg/kg, po BID measured after 24 hrs of first dose; assay type: functional
[1] = target: T1, Cholesteryl ester transfer protein (Homo sapiens, UniProt P11597); test: Inhibition of CETP-mediated neutral lipid transfer by fluorometric analysis
T1 sequence (P11597 whole entry): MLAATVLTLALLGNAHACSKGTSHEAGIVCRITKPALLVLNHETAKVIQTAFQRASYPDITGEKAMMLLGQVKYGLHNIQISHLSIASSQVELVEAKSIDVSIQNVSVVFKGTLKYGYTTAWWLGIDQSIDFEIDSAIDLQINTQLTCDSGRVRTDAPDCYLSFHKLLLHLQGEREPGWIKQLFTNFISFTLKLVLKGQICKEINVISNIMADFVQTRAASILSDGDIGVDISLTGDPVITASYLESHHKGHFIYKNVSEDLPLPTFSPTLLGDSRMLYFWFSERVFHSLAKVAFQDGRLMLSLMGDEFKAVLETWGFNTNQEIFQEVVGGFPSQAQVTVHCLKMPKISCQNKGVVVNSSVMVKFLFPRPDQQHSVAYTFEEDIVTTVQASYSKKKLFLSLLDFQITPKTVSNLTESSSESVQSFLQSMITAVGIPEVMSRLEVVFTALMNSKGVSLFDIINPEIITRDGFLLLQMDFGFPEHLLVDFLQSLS

SMILES | IC50 [1] [nM] | Activity (Mus musculus) [mg/dL]
COc1cc(F)c(C(C)C)cc1-c1ccc(F)cc1CN1C(=O)O[C@H](c2cc(C(F)(F)F)cc(C(F)(F)F)c2)[C@@H]1C | 25 | 8
COc1cc(F)c(C(C)C)cc1-c1ccc(S(C)(=O)=O)cc1CN1C(=O)O[C@H](c2cc(C(F)(F)F)cc(C(F)(F)F)c2)[C@@H]1C | 33.5 | 
COc1cc(F)c(C(C)C)cc1-c1ccc(C(C)C)cc1CN1C(=O)O[C@H](c2cc(C(F)(F)F)cc(C(F)(F)F)c2)[C@@H]1C | 54.1 | 
COc1cc(F)c(C(C)C)cc1-c1ccccc1CN1C(=O)O[C@H](c2cc(C(F)(F)F)cc(C(F)(F)F)c2)[C@@H]1C | 31.2 | 
CCCS(=O)(=O)c1ccc(-c2cc(C(C)C)c(F)cc2OC)c(CN2C(=O)O[C@H](c3cc(C(F)(F)F)cc(C(F)(F)F)c3)[C@@H]2C)c1 | 6930 | 
COc1cc(F)c(C(C)C)cc1-c1ccc(S(=O)(=O)C(F)(F)F)cc1CN1C(=O)O[C@H](c2cc(C(F)(F)F)cc(C(F)(F)F)c2)[C@@H]1C | 27.1 | 
COc1cc(F)c(C(C)C)cc1-c1ccc(S(=O)(=O)C(C)C)cc1CN1C(=O)O[C@H](c2cc(C(F)(F)F)cc(C(F)(F)F)c2)[C@@H]1C | 2600 | 
COc1cc(F)c(C(C)C)cc1-c1ccc(SC(C)C)cc1CN1C(=O)O[C@H](c2cc(C(F)(F)F)cc(C(F)(F)F)c2)[C@@H]1C | 689 | 
CCCSc1ccc(-c2cc(C(C)C)c(F)cc2OC)c(CN2C(=O)O[C@H](c3cc(C(F)(F)F)cc(C(F)(F)F)c3)[C@@H]2C)c1 | 1230 | 
COc1cc(F)c(C(C)C)cc1-c1ccc(C2=CCCC2)cc1CN1C(=O)O[C@H](c2cc(C(F)(F)F)cc(C(F)(F)F)c2)[C@@H]1C | 254 | 
COc1cc(F)c(C(C)C)cc1-c1ccc(C(F)(F)F)cc1CN1C(=O)O[C@H](c2cc(C(F)(F)F)cc(C(F)(F)F)c2)[C@@H]1C [ANACETRAPIB] |  | 28
COc1cc(F)c(C(C)C)cc1-c1ccc(C(C)(C)O)cc1CN1C(=O)O[C@H](c2cc(C(F)(F)F)cc(C(F)(F)F)c2)[C@@H]1C | 71.8 | 
COc1cc(F)c(C(C)C)cc1-c1ccc(N)cc1CN1C(=O)O[C@H](c2cc(C(F)(F)F)cc(C(F)(F)F)c2)[C@@H]1C | 296 | 

Now from value to compound, other results behind:

IC50 [1] [nM] | SMILES | Activity (Mus musculus) [mg/dL]
13.3 | COc1cc(F)c(C(C)C)cc1-c1ccc([N+](=O)[O-])cc1CN1C(=O)O[C@H](c2cc(C(F)(F)F)cc(C(F)(F)F)c2)[C@@H]1C | 21.5
18 | COc1cc(F)c(C(C)C)cc1-c1ccc(C(C)(C)F)cc1CN1C(=O)O[C@H](c2cc(C(F)(F)F)cc(C(F)(F)F)c2)[C@@H]1C | 23.2
23.5 | COc1cc(F)c(C(C)C)cc1-c1ccc(I)cc1CN1C(=O)O[C@H](c2cc(C(F)(F)F)cc(C(F)(F)F)c2)[C@@H]1C | 
19.6 | COc1cc(F)c(C(C)C)cc1-c1ccc(SC(F)(F)F)cc1CN1C(=O)O[C@H](c2cc(C(F)(F)F)cc(C(F)(F)F)c2)[C@@H]1C | 12.4
16.7 | COc1cc(F)c(C(C)C)cc1-c1ccc(C)cc1CN1C(=O)O[C@H](c2cc(C(F)(F)F)cc(C(F)(F)F)c2)[C@@H]1C | 13.8
16.5 | COc1cc(F)c(C(C)C)cc1-c1ccc(Cl)cc1CN1C(=O)O[C@H](c2cc(C(F)(F)F)cc(C(F)(F)F)c2)[C@@H]1C | 12.7
23.3 | COc1cc(F)c(C(C)C)cc1-c1ccc(C#N)cc1CN1C(=O)O[C@H](c2cc(C(F)(F)F)cc(C(F)(F)F)c2)[C@@H]1C | 14.8
16.2 | COc1cc(F)c(C(C)C)cc1-c1ccc(SC)cc1CN1C(=O)O[C@H](c2cc(C(F)(F)F)cc(C(F)(F)F)c2)[C@@H]1C | 16.4
19.8 | COc1cc(F)c(C(C)C)cc1-c1ccc(Br)cc1CN1C(=O)O[C@H](c2cc(C(F)(F)F)cc(C(F)(F)F)c2)[C@@H]1C | 23
24.9 | COc1cc(F)c(C(C)C)cc1-c1ccc(C(C)(C)C)cc1CN1C(=O)O[C@H](c2cc(C(F)(F)F)cc(C(F)(F)F)c2)[C@@H]1C | 21
24.8 | COc1cc(F)c(C(C)C)cc1-c1ccc(C2CC2)cc1CN1C(=O)O[C@H](c2cc(C(F)(F)F)cc(C(F)(F)F)c2)[C@@H]1C | 20.6

Source: ChEMBL document CHEMBL1933009, “SAR studies on the central phenyl ring of substituted biphenyl oxazolidinone-potent CETP inhibitors” (Bioorg Med Chem Lett, 2012)
